# US20080249091A1, “Indoles Useful in the Treatment of Inflammation” (priority 2005, published 2008)
# Target: T1, mPGES-1 (Homo sapiens, UniProt O14684)
# T1 construct: made in house; host or cells: E. coli (membrane fraction)
# T1 sequence (O14684 1-152): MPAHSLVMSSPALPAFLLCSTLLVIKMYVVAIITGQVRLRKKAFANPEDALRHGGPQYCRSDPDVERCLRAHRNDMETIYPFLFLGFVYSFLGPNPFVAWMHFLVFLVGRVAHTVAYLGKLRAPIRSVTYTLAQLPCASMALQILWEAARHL
# Test: mPGES-1 assay: conversion of PGH2 to PGE2, HPLC analysis
# Format: biochemical
# Conditions: mPGES-1 expressed in E. coli; 25 min preincubation with inhibitor at room temperature; PGH2 substrate 60 seconds; read-out: IC50 values (inhibition of mPGES-1)
# Protocol: In the assay mPGES-1 catalyses the reaction where the substrate PGH2 is converted to PGE2. mPGES-1 is expressed in E. coli and the membrane fraction is dissolved in 20 mM NaPi-buffer pH 8.0 and stored at −80° C. In the assay mPGES-1 is dissolved in 0.1M KPi-buffer pH 7.35 with 2.5 mM glutathione. The stop solution consists of H2O/MeCN (7/3), containing FeCl2 (25 mM) and HCl (0.15 M). The assay is performed at room temperature in 96-well plates. Analysis of the amount of PGE2 is performed with reversed phase HPLC (Waters 2795 equipped with a 3.9×150 mm C18 column). The mobile phase consists of H2O/MeCN (7/3), containing TFA (0.056%), and absorbance is measured at 195 nm with a Waters 2487 UV-detector.
# The following is added chronologically to each well: • 1. 100 μL mPGES-1 in KPi-buffer with glutathione. Total protein concentration: 0.02 mg/mL. • 2. 1 μL inhibitor in DMSO. Incubation of the plate at room temperature for 25 minutes. • 3. 4 μL of a 0.25 mM PGH2 solution. Incubation of the plate at room temperature for 60 seconds. • 4. 100 μL stop solution. • 180 μL per sample is analyzed with HPLC.
row,IC50 [µM],Structure (SMILES)
1,0.24,"CC(C)Oc1ccc(-n2c(C(=O)O)cc3cc(Oc4ccc(Cl)cc4)ccc32)cc1 [Example 10, 5-(4-Chlorophenoxy)-1-(4-isopropoxyphenyl)indole-2-carboxylic acid]"
2,0.61,"O=C(c1ccc(Cl)cc1)c1ccc2c(c1)c(Cl)c(C(=O)O)n2-c1ccc(OC2CCCC2)cc1 [Example 40, 3-Chloro-5-(4-chlorobenzoyl)-1-(4-cyclopentyloxyphenyl)indole-2-carboxylic acid]"
3,0.075,"O=C(O)c1cc2cc(Oc3ccc(C4CCCCC4)cc3)ccc2n1-c1ccc(OC2CC2)cc1 [Example 21, 5-(4-Cyclohexylphenoxy)-1-(4-cyclopropoxyphenyl)indole-2-carboxylic acid]"

# The next lines start with the compound.
row,Structure (SMILES),IC50 [µM]
1,"CC(C)Oc1ccc(-n2c(C(=O)O)cc3cc(Oc4cccc(OC(C)C)c4)ccc32)cc1 [Example 1, 5-(3-Isopropoxyphenoxy)-1-(4-isopropoxyphenyl)indole-2-carboxylic acid]",0.43
2,"CC(C)Oc1ccc(-n2c(C(=O)O)cc3cc(Oc4cnc5ccccc5c4)ccc32)cc1 [Example 13, 1-(4-Isopropoxyphenyl)-5-(quinolin-3-yloxy)indole-2-carboxylic acid]",3.7
